Reference: patent US10894803B2, “Multi-functionalized polysaccharide compounds and use thereof for targeting the cation-independent mannose 6-phosphate receptor” (NANOMEDSYN, priority 2015, dated 2021)
pIC50: −log10 of the molar value. Read-outs that look alike come from different tables or passages of the source.

Columns and labels:
[1] = target: CI-M6PR (Homo sapiens (Human), UniProt P11717); experiment: Competitive binding of M6P analogs to biotinylated CI-M6PR on adsorbed pentamannose 6-phosphate (PMP); conditions: for Relative affinity: relative to M6C-Ethyl-NH2 taken as reference = 1
Sequence of CI-M6PR (P11717 41-2491): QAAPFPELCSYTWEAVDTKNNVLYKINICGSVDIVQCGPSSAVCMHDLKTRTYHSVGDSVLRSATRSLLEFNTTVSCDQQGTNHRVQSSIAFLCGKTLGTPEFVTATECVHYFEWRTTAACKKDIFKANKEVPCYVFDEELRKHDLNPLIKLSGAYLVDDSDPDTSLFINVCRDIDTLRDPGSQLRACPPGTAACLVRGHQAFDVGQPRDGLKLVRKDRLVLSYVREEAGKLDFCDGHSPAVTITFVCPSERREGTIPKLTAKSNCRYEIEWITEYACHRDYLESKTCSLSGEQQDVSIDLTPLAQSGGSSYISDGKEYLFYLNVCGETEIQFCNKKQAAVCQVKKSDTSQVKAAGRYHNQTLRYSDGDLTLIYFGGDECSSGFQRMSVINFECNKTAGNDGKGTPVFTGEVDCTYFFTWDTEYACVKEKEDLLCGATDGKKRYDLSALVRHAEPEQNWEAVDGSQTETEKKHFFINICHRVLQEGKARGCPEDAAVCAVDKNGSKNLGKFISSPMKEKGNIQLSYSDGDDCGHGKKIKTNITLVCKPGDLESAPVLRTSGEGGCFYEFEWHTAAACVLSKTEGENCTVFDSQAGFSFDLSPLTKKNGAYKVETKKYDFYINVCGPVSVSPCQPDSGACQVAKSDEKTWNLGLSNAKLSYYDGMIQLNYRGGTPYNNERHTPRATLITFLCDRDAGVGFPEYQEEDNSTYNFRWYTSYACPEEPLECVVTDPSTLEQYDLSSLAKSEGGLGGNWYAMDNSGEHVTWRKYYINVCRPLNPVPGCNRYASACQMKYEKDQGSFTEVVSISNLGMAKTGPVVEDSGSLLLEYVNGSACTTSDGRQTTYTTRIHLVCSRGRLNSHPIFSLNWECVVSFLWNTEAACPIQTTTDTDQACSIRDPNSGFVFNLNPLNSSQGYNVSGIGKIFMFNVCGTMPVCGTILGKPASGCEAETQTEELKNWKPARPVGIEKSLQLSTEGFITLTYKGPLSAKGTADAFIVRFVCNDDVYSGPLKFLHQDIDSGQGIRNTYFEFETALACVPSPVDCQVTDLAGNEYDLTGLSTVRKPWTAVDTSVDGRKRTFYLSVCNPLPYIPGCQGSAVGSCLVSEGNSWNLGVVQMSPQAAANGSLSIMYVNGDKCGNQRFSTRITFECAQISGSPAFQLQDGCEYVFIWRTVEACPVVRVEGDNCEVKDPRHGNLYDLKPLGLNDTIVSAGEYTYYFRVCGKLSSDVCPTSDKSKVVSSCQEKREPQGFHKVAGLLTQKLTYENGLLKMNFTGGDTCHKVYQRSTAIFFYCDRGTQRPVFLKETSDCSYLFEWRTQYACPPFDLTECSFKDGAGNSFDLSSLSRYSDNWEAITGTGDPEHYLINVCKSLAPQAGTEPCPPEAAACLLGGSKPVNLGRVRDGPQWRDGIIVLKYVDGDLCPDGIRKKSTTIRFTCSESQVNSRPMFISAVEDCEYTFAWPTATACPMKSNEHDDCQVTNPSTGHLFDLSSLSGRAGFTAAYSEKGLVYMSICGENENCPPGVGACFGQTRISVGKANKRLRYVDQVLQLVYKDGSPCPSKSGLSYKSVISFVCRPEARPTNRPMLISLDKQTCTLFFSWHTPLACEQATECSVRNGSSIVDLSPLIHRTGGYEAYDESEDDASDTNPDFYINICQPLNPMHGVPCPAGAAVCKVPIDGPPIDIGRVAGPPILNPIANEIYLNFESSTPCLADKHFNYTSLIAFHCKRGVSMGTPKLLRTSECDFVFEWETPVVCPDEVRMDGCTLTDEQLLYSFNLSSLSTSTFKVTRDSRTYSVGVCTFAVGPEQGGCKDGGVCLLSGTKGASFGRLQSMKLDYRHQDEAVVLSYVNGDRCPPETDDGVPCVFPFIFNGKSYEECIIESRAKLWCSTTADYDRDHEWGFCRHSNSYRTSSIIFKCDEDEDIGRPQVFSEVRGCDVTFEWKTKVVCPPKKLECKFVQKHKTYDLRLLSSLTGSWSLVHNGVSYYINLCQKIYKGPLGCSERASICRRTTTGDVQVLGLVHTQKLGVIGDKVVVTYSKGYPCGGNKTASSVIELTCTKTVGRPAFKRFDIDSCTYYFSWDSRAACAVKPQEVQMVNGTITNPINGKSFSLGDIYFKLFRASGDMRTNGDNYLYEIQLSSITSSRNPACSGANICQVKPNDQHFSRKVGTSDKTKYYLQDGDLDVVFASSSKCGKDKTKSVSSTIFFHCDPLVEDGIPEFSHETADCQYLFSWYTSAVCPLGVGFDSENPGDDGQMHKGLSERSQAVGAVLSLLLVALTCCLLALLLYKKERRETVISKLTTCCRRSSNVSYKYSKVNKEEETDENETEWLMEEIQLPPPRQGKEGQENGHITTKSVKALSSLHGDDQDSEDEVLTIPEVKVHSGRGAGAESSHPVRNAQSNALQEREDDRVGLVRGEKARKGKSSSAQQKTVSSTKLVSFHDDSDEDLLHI
Experimental: 96-Well plates (Maxisorp Nunc) are incubated overnight at 4° C. with 200 μl of PMP (pentamannose 6-phosphate) at the concentration of 200 μg·ml^−1, in carbonate buffer (NaHCO3/Na2CO3 at 0.1M, pH 9.6). The following day, the solution containing the residual PMP is discarded and the wells are saturated, for 1 h at ambient temperature, with 360 μl of 1% gelatin (Type A from Porcine Skin) diluted in PBS (1.9 mM NaH2PO4, 8.1 mM Na2PO4 and 154 mM NaCl, pH 7.4). The wells are then rinsed five times with PBS to which 0.2% gelatin has been added. All the washes and also the dilutions are carried out in the solution of PBS to which 0.2% gelatin has been added. The M6P analogs to be tested at the various concentrations (from 10^−2 to 10^−7 M) are pre-incubated in the presence of pre-biotinylated CI-M6PR (M6PRb) ([…]) for 20 min, then 200 μl of the mixture are incubated in the wells for 2 h, at ambient temperature. After three washes, the wells are incubated for 1 h with a streptavidin-peroxidase solution (250 μl per well; 3.10^−8 M). After three more washes, 200 μl of a solution of OPD (o-phenylenediamine, 1 mg·ml^−1 in citrate buffer, pH 5.0, and 1 μl 30% H2O2.ml^−1; Sigma Aldrich) are added. After incubation for 20 min in the dark at ambient temperature, the optical densities are measured at the wavelength of 450 nm.
The conjugate of formula (III) is evaluated for its affinity with CI-M6PR. The binding affinity of rhGAA and of the rhGAA-M6Pn-α(1,2)-Man-Ethyloxyamino conjugate (28) was evaluated by means of a competitive binding technique with CI-M6PR described in example 2 and compared with the affinity of M6P.

[2] = system: myoblasts from an adult patient suffering from Pomp disease; experiment: Cellular maturation of internalized GAA by Western blot; assay type: cell-based, human; conditions: 50 nM, 48 h incubation, healthy subject myoblasts = 100%
Experimental: The myoblasts are incubated for 48 h in the presence of 50 nM rhGAA or of the rhGAA-M6Pn-α(1,2)-Man-Ethyloxyamino conjugate (28) (conjugate of formula (III)), then lysed and the proteins are extracted. The cellular maturation of the internalized GAA enzyme in the myoblasts of patients suffering from Pomp disease is studied by the SDS polyacrylamide gel separation technique, followed by immunodetection of the GAA by Western blot with an anti-human GAA antibody (anti-LYAG, Genetex) or an anti-human actin antibody (Invitrogen). […] This experiment is representative among two experiments. The thick arrow in FIG. 4 indicates the intermediate form of GAA. The black arrow indicates the mature form of GAA (60-70 kDa).
The mature form of 60 kDa is quantified by considering the band present in the myoblasts originating from a healthy subject to be 100%. The expression of GAA 60 kDa in the patient myoblasts corresponds to 1% of the GAA of a healthy subject and is not increased in the myoblasts treated with rhGAA. Conversely, the treatment with the rhGAA-M6Pn-α(1,2)-Man-Ethyloxyamino conjugate (28) increases the 60-70 kDa band to 47% of the GAA of a healthy subject. […] This activity is important for an application in the treatment of Pomp disease by enzyme therapy, but can also be applicable to all lysosomal diseases.

[3] = system: myoblasts of patients suffering from the adult form of Pomp disease; experiment: Internalization: GAA catalytic activity (4-MUG substrate) in cell extracts of treated myoblasts; assay type: cell-based, human; conditions: 50 nM, 48 h incubation; compared with rhGAA
Experimental: The myoblast-type cells originating from an adult patient suffering from Pomp disease are maintained in primary culture.
The catalytic activity of GAA is measured in the cell extracts using the synthetic substrate 4-methylumbelliferyl-α-D-glucopyranoside (4-MUG). This substrate and the molecular weight standards are obtained from Sigma. The GAA activity in the cell extracts (20 μl) is measured in a reaction volume of 75 μl containing 50 mM citric acid, 115 mM K2HPO4, 110 mM KCl, 10 mM NaCl, pH 5.0, with 6 mM 4-MUG, for 10 min at ambient temperature. The reaction is stopped with 75 μl of 0.1 M Tris HCl, pH 8. The fluorescence is read with an excitation filter at 355 nm and an emission filter at 460 nm in 96-well plates, and compared to a standard curve obtained with 4-methylumbelliferone. The catalytic activity is expressed per mg of protein. Mean±standard deviation.

[4] = inhibition of CI-M6PR binding to adsorbed PMP, Table 1, read-out: IC50
[5] = competitive binding technique of example 2, Example 4 experiments, read-out: 50% inhibitory concentration (IC50), affinity for CI-M6PR

pIC50 [1, 4]	Relative affinity [1]	pIC50 [1, 5]	Compound	mature form of GAA (60-70 kDa band), % of the GAA of a healthy subject [2]	other results
4.54	3.4		NCCO[C@H]1OC(CCP(=O)(O)O)[C@@H](O)[C@H](O)C1O (stereo partly drawn) [M6Pn-Ethyl-NH2]		
		4.52	O=C[C@@H](O)[C@@H](O)[C@H](O)[C@H](O)COP(=O)(O)O [Compound M6P, mannose 6-phosphate]		
4.77	5.8		NCCO[C@H]1O[C@H](CO)[C@@H](O)[C@H](O)[C@@H]1O[C@H]1O[C@H](CCC(=O)O)[C@@H](O)[C@H](O)[C@@H]1O [Compound 24, aminoethyl 6,7-dideoxy-7-hydroxycarbonyl-α-D-manno-heptopyranosyl-(1→2)-α-D-mannopyranoside]		
4.00	1		NCCO[C@H]1OC(CCC(=O)O)[C@@H](O)[C@H](O)C1O (stereo partly drawn) [M6C-Ethyl-NH2]		
		6.52	rhGAA: recombinant human acid alpha-glucosidase produced in CHO cells, approximately 110 000 Da	not increased	affinity for CI-M6PR, times lower than the rhGAA-M6Pn-α(1,2)-Man-Ethyloxyamino conjugate (28) ([1]; ratio of IC50 values): 5.5 times
			rhGAA-M6Pn-α(1,2)-Man-Ethyloxyamino (28): rhGAA functionalized on oligosaccharide chains with phosphonate disaccharide analog 28; conjugate of formula (III)	47%	cell penetration of GAA measured through catalytic activity on 4-MUG [3]: significantly increases
